Laboratory results reported in US20110124607A1, “COMPOSITION FOR REGULATION CELLULAR SENESCENCE COMPRISING LYSOPHOSPHATIDIC ACID AND INHIBITOR OF ADENYLYL CYCLASE AS ACTIVE INGREDIENTS” (priority 2008, published 2011).

Legend:
[1] = system: young cells (human fibroblasts); assay: Cell proliferation by counting live cells (trypan blue), young cells; type: cell-based; settings: serum-starved 2 days, counted day 1, 2, 4, 30 μM LPA, 300 μM ACI, 10 mM AMPKI, 10 mM AICAR
Method: Human fibroblasts were prepared by primary culture of foreskin of a newborn baby (Boyce and Ham, 1983). The primary culture was performed in DMEM supplemented with 10% FBS and 1% antibiotics. The protein contents of young cells from the early stage of sub-culture, with a population doubling (PD) of less than 25, were compared to those of at least PD 65-70 senescent cells. […] In senescent cells, the activity of beta-galactosidase was increased and cell proliferation was reduced (Yeo et al., 2000).
Prior to LPA and ACI treatment, cells were grown for 1-2 days to 60-70% sub-confluence in DMEM-containing culture medium, and then serum-starved to quiescence (that is Go/G1 arrest) by incubation in a serum-free medium containing 0.1% bovine serum albumin (BSA) for 2 days. Young and senescent cells were treated with LPA, ACI, LPA+ACI, AMPKI and AICAR, respectively. Live cells were measured after staining the cells with trypan blue on day 1, day 2 and day 4 to confirm cell proliferation.
Cell proliferation and cAMP level were increased by LPA in senescent cells (Yeo et al., 2002). The AC inhibitor (ACI) was added to reduce cAMP which had been increased by LPA. And then, cell proliferation was investigated. Cells were cultured in serum-free medium for 2 days to arrest them in G0/G1 phase. Then, the cells were treated with LPA, ACI or LPA+ACI. Total cell number was measured on day 1, day 2 and day 4, or the cells entered into S phase were counted to evaluate cell proliferation. When young cells were treated with 300 μM of ACI, cell proliferation was reduced, compared with control (FIG. 1A). In the meantime, when senescent cells were treated with 300 μM of ACI, cell proliferation was increased, compared with control (FIG. 1B).

[2] = system: p-Ser431-LKB1; assay: Immuno-blotting of p-Ser431-LKB1; type: cell-based, human; settings: 30 μM LPA, 300 μM ACI, 1, 2, 4 days
Method: (§1) FIG. 8 is a set of photographs illustrating the effects of LPA and ACI on LKB1 phosphorylation in senescent cells. Precisely, sub-cultured young cells (PD 18) and senescent cells (PD64) were treated with 30 μM of LPA or 300 μM of LPA and ACI singly or together. After culturing the cells for 1, 2, and 4 days, proteins were extracted from the cultured cells and the levels of LKB1, p-Ser431-LKB1 and β-actin were quantified by immuno-blotting using 45 μg of the protein.
(§2) To analyse protein expression, human fibroblasts were lysed in cold lysis buffer (25 mM Hepes, pH 8.0, 150 mM NaCl, 1 mM EDTA, 1 mM Na3VO4, 1 mM NaF, 1% Triton X-100 and protease inhibitors), followed by centrifugation at 4° C. at 9,000 rpm for 10 minutes to obtain supernatant. Protein in the extract was quantified […]. SDS-PAGE electrophoresis was performed with equal amount of the protein (45 μg) to separate. The separated protein was transferred onto NC membrane from the electrophoresis gel. Non-specific protein binding was blocked by blocking the blot (transferred NC membrane) using TTBS […] containing 5% skim milk for one hour. Then, antigen-antibody reaction was induced with diluted primary antibody at 4° C. for overnight. The blot was washed with TTBS, followed by reaction with horseradish peroxidase conjugated anti-IgGs diluted in TTBS containing 5% skim milk (1:5000) at room temperature for one hour. The blot was washed again with TTBS to eliminate non-specific binding of antigen-antibody. Photographs were developed/printed on X-ray film (Kodak) using ECL kit (Pierce) containing peroxidase substrate to identify each protein.
It has been recently discovered that the tumor suppressor gene LKB1 is a member of AMPKK family (Hawley et al., 2003; Shaw et al., 2004; Woods et al., 2003a). Ser431-LKB1 phosphorylation promotes cell growth in the activated form of LKB1 (Sapkota et al., 2001). So, in this experiment, it was examined what effect the single treatment or co-treatment of LPA and ACI has on the expressions of p-Ser431-LKB1, LKB1 and β-actin (FIG. 8). […] Meanwhile, LKB1 expression therein was not changed.

[3] = system: LKB1; assay: Immuno-blotting of LKB1; type: cell-based, human; settings: 1, 2, 4 days
Method: as §1
as §2, with “The blot was washed with TTBS, followed by reaction with horseradish peroxidase conjugated anti-IgGs diluted in TTBS containing 5% skim milk (1:5000) at room temperature for one hour. The blot was washed again with TTBS to eliminate non-specific binding of antigen-antibody. Photographs were developed/printed on X-ray film (Kodak) using ECL kit (Pierce) containing peroxidase substrate to identify each protein.” left out

| Molecule | cell proliferation (cell number) compared with control [1] | Ser431-LKB1 phosphorylation ([2]; senescent cells) | Ser431-LKB1 phosphorylation ([2]; young cells) | LKB1 expression ([3]; senescent cells, 300 μM ACI) | LKB1 expression ([3]; young cells, 30 μM LPA) |
| --- | --- | --- | --- | --- | --- |
| Nc1ncnc2c1ncn2C1CCCO1 (centres unmarked) [ACI, 9-(tetrahydro-2′-furyl)adenine] | reduced | reduced | increased | reduced | – |
| lysophosphatidic acid [LPA] | increased | gradually increased | gradually reduced | – | not changed |
